From patent US6630310B1, “Assay for binding between carbohydrate and glycolipid” (Biopolymer Engineering Pharmaceutical, Inc., priority 1996, dated 2003)
Entries after “also recorded” stand apart in the source; their conditions may differ.

Legend:
[1] = Specific binding of ^3H-PGG-Glucan to sphingolipids in the 96-well plate assay; design: ^3H-PGG-Glucan bound (specific binding): unit not given here; settings: for ^3H-PGG-Glucan bound (specific binding): LacCer of defined fatty acid and long chain base, 96-well plate; for 3H-PGG-Glucan Bound (specific binding): sphingolipid immobilized in 96-well plate, 37° C.; for specific binding to ^3H-underivatized, aqueous soluble β(1-3)-glucan (in words): immobilized on a polystyrene 96-well plate
Method: Lactosyl ceramide or the sample to be measured was suspended in ethanol. Aliquots as specified were added in triplicate to the wells of a 96-well plate and air dried. The following components were premixed, then 100 μL was added to each well: saline (10 μL) or unlabelled, underivatized, aqueous soluble β(1-3)-glucan (10 μL of a 10 mg/ml stock), ^3H-underivatized, aqueous soluble β(1-3) glucan (10 μL of a 10 μg/ml stock), and HBSS (80 μL). Plates were incubated at 37° C. for 1.5 to 2 hours, then supernatants were removed from each well and discarded. Wells were rinsed with HBSS (200 μL) and SOLVABLE™ (100 μL) was added. The plate was incubated at 60° C. for 5 minutes, then supernatants were removed and counted.

[2] = test system: human leukocyte membranes; assay: ^3H-PGG-Glucan binding to pretreated human leukocyte membranes; settings: for effect of detergent pretreatment of membranes on specific binding (in words): membranes pretreated 5 minutes on ice (CHAPS 0.25%) (FIG. 9)
Method: Human leukocyte membranes were incubated in HBSS with or without 0.25% CHAPS for 5 minutes on ice, followed by centrifugation at 180,000×g, 4° C. for 45 minutes. Pellets were used in a binding assay with underivatized, aqueous soluble β(1-3)-glucan or dextran (avg. MW 71,000, Sigma Chemical Co., MO) as indicated at 1 mg/ml final concentration.
Human leukocyte membranes (500 μg protein) were incubated with sodium periodate at concentrations indicated in FIG. 12 (10 and 100 mM) for 30 minutes at room temperature, then centrifuged at 12,000×g for 10 minutes, rinsed and used in a binding assay (non-oil/sucrose; see FIG. 12). Protein-depleted membranes (derived from 1.87 mg human leukocyte membrane protein) were incubated in 0.1 M sodium periodate and treated as described above (FIG. 13).
An alternative procedure to that using the oil/sucrose gradient involved centrifuging 100 μl aliquots of the binding assay in microfuge tubes at 12,000×g, for five minutes, followed by rinsing the resultant pellet with HBSS. Pellets were then dissolved in SOLVABLE™ and radioactively determined as above.

[3] = test system: receptor for underivatized, aqueous soluble β(1-3)-glucan on human leukocyte membranes; assay: Competition of ^3H-PGG-Glucan binding to human leukocyte membranes (oil/sucrose binding assay)
Method: Aminated glucan was prepared by reductive amination of curdlan and provided by Dr. Rolph Seljelid (University of Tromsφ, Tromsφ, Norway).
At the end of the incubation, 100 μl aliquots of reaction mixture were layered on top of a double layer density gradient consisting of 100 μl dibutyl phthalate (lower layer) and 100 μl 8% sucrose in PBS (upper layer) in 400 μl centrifuge tubes (Brinkman). The tubes were spun at 15,000×g for 4-5 minutes and the tips containing the membrane pellets were removed, incubated in 300 μl SOLVABLE™ (New England Nuclear, Boston, Mass.) overnight at 50° C. to dissolve the pellet, and then radioactivity determined by liquid scintillation counting. […] Alternatively, membranes were centrifuged directly in their incubation tubes at 15,000×g for 4-5 minutes at 37° C., the pellet washed with HBSS, then pellets solubilized and radioactivity determined by liquid scintillation counting.

[4] = Competition of ^3H-PGG-Glucan binding to lactosyl ceramide in 96-well plate assay (FIGS. 14, 15); design: species or system bovine; settings: FIGS. 14 and 15
Source text: FIG. 14 is a graph of the comparison of underivatized, aqueous soluble β(1-3)-glucan and single helix competition of ^3H-underivatized, aqueous soluble β(1-3)-glucan binding in three assay formats. Underivatized, aqueous soluble β(1-3)-glucan or single helix glucan was used at designated concentrations to compete for ^3H-underivatized, aqueous soluble β(1-3)-glucan binding to lactosyl ceramide (LacCer) in a 96-well plate (triangles), or to lactosyl ceramide in reconstituted membranes (squares), or to human leukocyte membranes (circles). Open symbols represent underivatized, aqueous soluble β(1-3) glucan, and closed symbols represent single helix. Maximum competition was assigned at the highest concentration of underivatized, aqueous soluble β(1-3)-glucan used as competitor in each type of assay.
FIG. 15 is a graphic illustration of data showing that underivatized, aqueous soluble β(1-3) glucan and high molecular weight underivatized, aqueous soluble β(1-3) glucan (Network) compete more effectively for ^3H-underivatized, aqueous soluble β(1-3)-glucan binding to lactosyl ceramide in a 96-well plate assay than do single helix or laminarin. […]
Lactosyl ceramide or the sample to be measured was suspended in ethanol. […] The plate was incubated at 60° C. for 5 minutes, then supernatants were removed and counted.

[5] = addition at 0.1 mg/ml, ^3H-PGG-Glucan binding to human leukocyte membranes

CCCCCCCCCCCCCCCCCCCCCCCC(=O)NC(CO[C@@H]1O[C@H](CO)[C@@H](O[C@@H]2O[C@H](CO)[C@H](O)[C@H](O)[C@H]2O)[C@H](O)[C@H]1O)C(O)CCCCCCCCCCCCCCC (mixture of isomers) [N-Lignoceroyl-DL-dihydrolacto-cerebroside]
^3H-PGG-Glucan bound (specific binding) [1]: 0.00

CCCCCCCCCCCCCCCC(=O)NC(CO[C@@H]1O[C@H](CO)[C@@H](O[C@@H]2O[C@H](CO)[C@H](O)[C@H](O)[C@H]2O)[C@H](O)[C@H]1O)C(O)CCCCCCCCCCCCCCC (mixture of isomers) [N-Palmitoyl-DL-dihydrolacto-cerebroside]
^3H-PGG-Glucan bound (specific binding) [1]: 0.00

CCCCCCCCCCCCCCCCCC(=O)NC(CO[C@@H]1O[C@H](CO)[C@@H](O[C@@H]2O[C@H](CO)[C@H](O)[C@H](O)[C@H]2O)[C@H](O)[C@H]1O)C(O)CCCCCCCCCCCCCCC (mixture of isomers) [N-Stearoyl-DL-dihydrolacto-cerebroside]
^3H-PGG-Glucan bound (specific binding) [1]: 0.00

C[C@H](CCC(=O)NCCC[N+](C)(C)CCCS(=O)(=O)[O-])[C@H]1CC[C@H]2[C@@H]3[C@H](O)C[C@@H]4C[C@H](O)CC[C@]4(C)[C@H]3C[C@H](O)[C@]12C [CHAPS]
effect of detergent pretreatment of membranes on specific binding (in words) [2]: enhancement of specific binding

O=C(O)CN(CCOCCOCCN(CC(=O)O)CC(=O)O)CC(=O)O [EGTA]
% Control Binding ([3]; addition at 5 mM): 87%

CCCCCCCCCCCCCC=CC(O)C(COC1OC(CO)C(OC2OC(CO)C(O)C(O)C2O)C(O)C1O)NC(=O)CCCCCCCCCCCCCCC (stereo not drawn) [LacCer (HLM) C16:0]
^3H-PGG-Glucan bound (specific binding) [1]: 3.31

CCCCCCCCCCCCC/C=C/[C@@H](O)[C@H](CO[C@@H]1O[C@H](CO)[C@@H](O[C@@H]2O[C@H](CO)[C@H](O)[C@H](O)[C@H]2O)[C@H](O)[C@H]1O)NC(=O)CCCCCCCCCCCCCCCCC [LacCer (HLM) C18:0]
^3H-PGG-Glucan bound (specific binding) [1]: 1.93

CCCCCCCCCCCCCC=CC(O)C(COC1OC(CO)C(OC2OC(CO)C(O)C(O)C2O)C(O)C1O)NC(=O)CCCCCCCCCCCCCCCCCCCCC (stereo not drawn) [LacCer (HLM) C22:0]
^3H-PGG-Glucan bound (specific binding) [1]: 3.57

CCCCCCCCCCCCC/C=C/[C@@H](O)[C@H](CO[C@@H]1O[C@H](CO)[C@@H](O[C@@H]2O[C@H](CO)[C@H](O)[C@H](O)[C@H]2O)[C@H](O)[C@H]1O)NC(=O)CCCCCCCCCCCCCCCCCCCCCCC [LacCer (HLM) C24:0]
^3H-PGG-Glucan bound (specific binding) [1]: 3.14

CCCCCCCCCCCCC/C=C/[C@@H](O)[C@@H](N)CO [Sphingosine]
3H-PGG-Glucan Bound (specific binding) [1]: 0.02 ± 0.00 ng/μg sphingolipid

OC[C@H]1O[C@@H](O[C@@H]2[C@@H](O)[C@H](O[C@@H]3[C@@H](O)[C@H](O[C@@H]4[C@@H](O)[C@H](O[C@@H]5[C@@H](O)[C@H](O[C@@H]6[C@@H](O)[C@H](O[C@@H]7[C@@H](O)[C@H](O)O[C@H](CO)[C@H]7O)O[C@H](CO)[C@H]6O)O[C@H](CO)[C@H]5O)O[C@H](CO)[C@H]4O)O[C@H](CO)[C@H]3O)O[C@H](CO)[C@H]2O)[C@H](O)[C@@H](O)[C@@H]1O [laminariheptose]
inhibition of radioactively labeled underivatized, aqueous soluble β(1-3)-glucan binding to human leukocyte membranes (in words) [3]: no effect

CCCCCCCCO[C@@H]1O[C@H](CO)[C@@H](O)[C@H](O)[C@H]1O [octylglucoside]
effect of detergent pretreatment of membranes on specific binding (in words) [2]: enhancement of specific binding

[Na+].[O-][I+3]([O-])([O-])[O-] [sodium periodate]
effect of sodium periodate treatment of membranes on binding activity (in words) ([2]; 10 and 100 mM, 30 minutes at room temperature (FIGS. 12, 13)): decreased

Ceramides
3H-PGG-Glucan Bound (specific binding) [1]: 0.02 ± 0.01 ng/μg sphingolipid

Dextran
% Control Binding ([3]; addition at 1 mg/ml): 88%

Globoside
3H-PGG-Glucan Bound (specific binding) [1]: 0.00 ± 0.01 ng/μg sphingolipid

Glycogen
% Control Binding [3, 5]: 134%

Laminarin
competition for ^3H-underivatized, aqueous soluble β(1-3)-glucan binding to LacCer in the 96-well plate assay (in words) [4]: does not compete efficiently
inhibition of radioactively labeled underivatized, aqueous soluble β(1-3)-glucan binding to human leukocyte membranes (in words) [3]: do not inhibit; also recorded: not inhibited
% Control Binding ([3]; addition at 1 mg/ml): 83%

Lipopolysaccharide
% Control Binding [3, 5]: 89%

Mannan
% Control Binding ([3]; addition at 1 mg/ml): 88%

Sulfatides
3H-PGG-Glucan Bound (specific binding) [1]: 0.00 ± 0.01 ng/μg sphingolipid

galactosyl ceramides
specific binding to ^3H-underivatized, aqueous soluble β(1-3)-glucan (in words) [1]: significant specific binding

globotriaosyl ceramide [GlobotriaosylCer]
specific binding to ^3H-underivatized, aqueous soluble β(1-3)-glucan (in words) [1]: significant specific binding
3H-PGG-Glucan Bound (specific binding) [1]: 0.84 ± 0.13 ng/μg sphingolipid

lactosyl ceramide
specific binding to ^3H-underivatized, aqueous soluble β(1-3)-glucan (in words) [1]: significant specific binding
